Biological target: Glycogen phosphorylase, muscle form (Oryctolagus cuniculus) (UniProt P00489)
Conditions: Muscle tissue

Sequence of Glycogen phosphorylase, muscle form (Oryctolagus cuniculus) (P00489 whole entry, looked up): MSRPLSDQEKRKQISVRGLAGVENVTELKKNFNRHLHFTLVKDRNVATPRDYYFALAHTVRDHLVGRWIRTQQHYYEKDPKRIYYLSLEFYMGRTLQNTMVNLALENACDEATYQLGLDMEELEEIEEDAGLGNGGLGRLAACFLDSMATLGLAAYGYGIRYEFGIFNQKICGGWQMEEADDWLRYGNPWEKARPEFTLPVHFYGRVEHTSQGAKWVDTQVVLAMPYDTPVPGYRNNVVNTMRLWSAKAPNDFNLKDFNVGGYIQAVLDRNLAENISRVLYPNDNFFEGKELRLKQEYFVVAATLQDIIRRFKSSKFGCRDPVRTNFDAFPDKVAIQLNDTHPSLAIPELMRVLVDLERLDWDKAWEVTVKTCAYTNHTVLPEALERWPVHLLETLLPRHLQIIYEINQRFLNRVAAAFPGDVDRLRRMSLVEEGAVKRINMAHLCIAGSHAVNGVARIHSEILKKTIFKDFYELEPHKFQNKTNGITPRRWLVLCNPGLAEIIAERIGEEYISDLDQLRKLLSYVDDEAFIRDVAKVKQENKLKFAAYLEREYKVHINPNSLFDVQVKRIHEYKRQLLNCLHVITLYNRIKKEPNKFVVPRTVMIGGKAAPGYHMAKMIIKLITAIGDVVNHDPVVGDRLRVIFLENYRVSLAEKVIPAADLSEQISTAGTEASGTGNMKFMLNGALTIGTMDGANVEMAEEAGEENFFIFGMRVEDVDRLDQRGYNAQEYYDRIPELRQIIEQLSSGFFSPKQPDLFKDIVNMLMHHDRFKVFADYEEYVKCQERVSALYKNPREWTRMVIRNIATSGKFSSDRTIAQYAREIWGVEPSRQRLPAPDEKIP

Going from CC(=O)NCC(=O)N[C@H]1O[C@H](CO)[C@@H](O)[C@H](O)[C@H]1O to CCC(=O)N[C@H]1O[C@H](CO)[C@@H](O)[C@H](O)[C@H]1O, the pKi rises from 3 to 4.41.

OCC1OC(S)C(O)C(O)C1O (stereo not drawn) and OCC1OC(CO)C(O)C(O)C1O (stereo not drawn) are within 0.2 log units of each other in pKi: 3 for the first, 2.82 for the second.

First: N#CC[C@]1(O)O[C@H](CO)[C@@H](O)[C@H](O)[C@H]1O
Second: OC[C@@H]1O[C@@](O)(CO)[C@@H](O)[C@@H](O)[C@@H]1O
The pKi of the first is higher: 2.12 for the first, 1.8 for the second.

CS(=O)(=O)OC[C@]1(O)O[C@@H](CO)[C@@H](O)[C@H](O)[C@@H]1O and CS(=O)(=O)OCC1OC(CO)C(O)C(O)C1O (stereo not drawn) are within 0.2 log units of each other in pKi: 2.43 for the first, 2.32 for the second.

[N-]=[N+]=NC[C@H]1O[C@H](CO)[C@@H](O)[C@H](O)[C@H]1O and [N-]=[N+]=NC[C@@H]1O[C@H](CO)[C@@H](O)[C@H](O)[C@H]1O are within 0.2 log units of each other in pKi: 1.65 for the first, 1.82 for the second.

O=C1CNC(=O)[C@@]2(N1)O[C@@H](CO)[C@@H](O)[C@H](O)[C@@H]2O and O=C1N[C@@]2(O[C@@H](CO)[C@@H](O)[C@H](O)[C@@H]2O)C(=O)N1O are within 0.2 log units of each other in pKi: 4.22 for the first, 4.41 for the second.

Going from NCC(=O)N[C@H]1O[C@@H](CO)[C@@H](O)[C@H](O)[C@@H]1O to O=C(CCl)N[C@H]1O[C@H](CO)[C@@H](O)[C@H](O)[C@H]1O, the pKi rises from 3.43 to 4.35.

Going from OC[C@H]1O[C@H](OCC2O[C@@H](O)[C@H](O)[C@@H](O)[C@@H]2O)[C@H](O)[C@@H](O)[C@H]1O (stereo partly drawn) to OC[C@@H]1O[C@H](OC[C@H]2S[C@H](O)[C@H](O)[C@@H](O)[C@@H]2O)[C@@H](O)[C@@H](O)[C@@H]1O, the pKi rises from 1.79 to 2.7.

Compared with NCCC1OC(CO)C(O)C(O)C1O (stereo not drawn), NCC1OC(CO)C(O)C(O)C1O (stereo in doubt; 19) is lower in pKi: 2.35 for the first, 1.78 for the second.

Compared with COC(=O)N[C@]1(C(N)=O)O[C@H](CO)[C@@H](O)[C@H](O)[C@H]1O (stereo in doubt; 49), COC(=O)N[C@@H]1O[C@H](CO)[C@@H](O)[C@H](O)[C@H]1O is higher in pKi: 3.5 for the first, 4.07 for the second.

Compared with NCC1OC(CO)C(O)C(O)C1O (stereo in doubt; 5), N#CC[C@@H]1O[C@H](CO)[C@@H](O)[C@H](O)[C@H]1O is higher in pKi: 1.46 for the first, 2.05 for the second.

Going from O=C(NCC(F)(F)F)[C@H]1O[C@@H](CO)[C@@H](O)[C@H](O)[C@@H]1O to O=C(NCCO)[C@H]1O[C@@H](CO)[C@@H](O)[C@H](O)[C@@H]1O, the pKi rises from 2.09 to 2.59.

Compared with CC(=O)NN1C(=O)N[C@@]2(O[C@@H](CO)[C@@H](O)[C@H](O)[C@@H]2O)C1=O, NN1C(=O)N[C@@]2(O[C@@H](CO)[C@@H](O)[C@H](O)[C@@H]2O)C1=O is higher in pKi: 3.26 for the first, 3.84 for the second.

Going from CNNC(=O)[C@H]1O[C@H](CO)[C@@H](O)[C@H](O)[C@H]1O to CNC(=O)C1OC(CO)C(O)C(O)C1O (stereo not drawn), the pKi rises from 2.75 to 3.8.

First: NC(=O)C1OC(CO)C(O)C(O)C1O (stereo in doubt; 9)
Second: NNC(=O)[C@@H]1O[C@H](CO)[C@@H](O)[C@H](O)[C@H]1O (stereo in doubt; 3)
The pKi of the first is higher: 3.36 for the first, 2.52 for the second.

Going from COC(=O)C1OC(CO)C(O)C(O)C1O (stereo in doubt; 18) to NC(=O)C1OC(CO)C(O)C(O)C1O (stereo in doubt; 2), the pKi rises from 2.55 to 3.43.

First: O=C(N[C@H]1O[C@H](CO)[C@@H](O)[C@H](O)[C@H]1O)c1ccccc1
Second: O=C(Nc1ccccc1)C1OC(CO)C(O)C(O)C1O (stereo not drawn)
The pKi of the first is higher: 4.09 for the first, 2.27 for the second.

Compared with CC(=O)N[C@H]1O[C@H](CO)[C@@H](O)[C@H](O)[C@H]1O, NC(=O)N[C@H]1O[C@H](CO)[C@@H](O)[C@H](O)[C@H]1O is lower in pKi: 4.5 for the first, 3.85 for the second.

Going from O=C(Nc1ccc(O)cc1)[C@H]1O[C@@H](O)[C@@H](O)[C@H](O)[C@@H]1O to NNC(=O)[C@@H]1O[C@H](CO)[C@@H](O)[C@H](O)[C@H]1O (stereo in doubt; 14), the pKi rises from 2.36 to 3.4.

Compared with O=C(CS[C@H]1O[C@H](CO)[C@@H](O)[C@H](O)[C@H]1O)Nc1ccccc1, O=C(CS[C@H]1O[C@H](CO)[C@@H](O)[C@H](O)[C@H]1O)Nc1ccc(F)cc1F is lower in pKi: 2.44 for the first, 1.72 for the second.

First: COC(=O)N[C@]1(C(N)=O)O[C@H](CO)[C@@H](O)[C@H](O)[C@H]1O (stereo in doubt; 35)
Second: COC(=O)C1OC(CO)C(O)C(O)C1O (stereo in doubt; 4)
The pKi of the first is higher: 4.8 for the first, 1.62 for the second.

First: [N-]=[N+]=NC[C@@]1(O)O[C@@H](CO)[C@@H](O)[C@H](O)[C@@H]1O
Second: O=C(CBr)N[C@H]1O[C@@H](CO)[C@@H](O)[C@H](O)[C@@H]1O
The pKi of the first is lower: 2.13 for the first, 4.36 for the second.

Compared with NC(=O)CS[C@H]1O[C@H](CO)[C@@H](O)[C@H](O)[C@H]1O, CCCC(=O)N[C@H]1O[C@H](CO)[C@@H](O)[C@H](O)[C@H]1O is higher in pKi: 1.68 for the first, 4.03 for the second.

Going from OC[C@@H]1O[C@H](n2cc(O[C@@H]3O[C@H](CO)[C@@H](O)[C@H](O)[C@H]3O)c3ccccc32)[C@@H](O)[C@@H](O)[C@@H]1O to O=C(NC1CC1)[C@H]1O[C@@H](CO)[C@@H](O)[C@H](O)[C@@H]1O, the pKi rises from 2.59 to 2.89.

From ChEMBL document CHEMBL1130260, “A strategy for the incorporation of water molecules present in a ligand binding site into a three-dimensional quantitative structure--activity relationship analysis” (J Med Chem, 1997)
